Test results from ChEMBL document CHEMBL1140833, “Potent heteroarylpiperidine and carboxyphenylpiperidine 1-alkyl-cyclopentane carboxamide CCR2 antagonists” (Bioorg Med Chem Lett, 2008).

Columns and labels:
[1] = target: C-C chemokine receptor type 2 (Homo sapiens, UniProt P41597); experiment: Displacement of [125I]MCP1 from CCR2 receptor in human monocytes; type: cell-based
[2] = target: C-C chemokine receptor type 5 (Homo sapiens) (UniProt P51681); experiment: Inhibition of CCR5 at 1 uM; set-up: scale not given: the % may be the effect or the level left
Sequence of C-C chemokine receptor type 5 (Homo sapiens) (P51681 whole entry, looked up): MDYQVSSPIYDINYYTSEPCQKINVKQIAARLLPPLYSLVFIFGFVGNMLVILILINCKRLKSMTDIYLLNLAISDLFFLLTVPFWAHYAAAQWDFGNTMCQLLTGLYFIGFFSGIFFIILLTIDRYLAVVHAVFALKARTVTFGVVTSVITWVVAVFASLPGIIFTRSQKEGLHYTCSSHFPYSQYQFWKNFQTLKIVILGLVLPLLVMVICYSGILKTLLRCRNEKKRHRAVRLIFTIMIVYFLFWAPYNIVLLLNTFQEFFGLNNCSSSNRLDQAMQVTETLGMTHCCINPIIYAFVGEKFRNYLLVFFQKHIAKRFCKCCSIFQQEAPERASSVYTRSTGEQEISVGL

[3] = target: Voltage-gated inwardly rectifying potassium channel KCNH2 (Homo sapiens, UniProt Q12809); experiment: Displacement of [[…]]MK499 from human ERG expressed in HEK cells; type: cell-based, HEK293
Sequence of Voltage-gated inwardly rectifying potassium channel KCNH2 (Q12809 whole entry): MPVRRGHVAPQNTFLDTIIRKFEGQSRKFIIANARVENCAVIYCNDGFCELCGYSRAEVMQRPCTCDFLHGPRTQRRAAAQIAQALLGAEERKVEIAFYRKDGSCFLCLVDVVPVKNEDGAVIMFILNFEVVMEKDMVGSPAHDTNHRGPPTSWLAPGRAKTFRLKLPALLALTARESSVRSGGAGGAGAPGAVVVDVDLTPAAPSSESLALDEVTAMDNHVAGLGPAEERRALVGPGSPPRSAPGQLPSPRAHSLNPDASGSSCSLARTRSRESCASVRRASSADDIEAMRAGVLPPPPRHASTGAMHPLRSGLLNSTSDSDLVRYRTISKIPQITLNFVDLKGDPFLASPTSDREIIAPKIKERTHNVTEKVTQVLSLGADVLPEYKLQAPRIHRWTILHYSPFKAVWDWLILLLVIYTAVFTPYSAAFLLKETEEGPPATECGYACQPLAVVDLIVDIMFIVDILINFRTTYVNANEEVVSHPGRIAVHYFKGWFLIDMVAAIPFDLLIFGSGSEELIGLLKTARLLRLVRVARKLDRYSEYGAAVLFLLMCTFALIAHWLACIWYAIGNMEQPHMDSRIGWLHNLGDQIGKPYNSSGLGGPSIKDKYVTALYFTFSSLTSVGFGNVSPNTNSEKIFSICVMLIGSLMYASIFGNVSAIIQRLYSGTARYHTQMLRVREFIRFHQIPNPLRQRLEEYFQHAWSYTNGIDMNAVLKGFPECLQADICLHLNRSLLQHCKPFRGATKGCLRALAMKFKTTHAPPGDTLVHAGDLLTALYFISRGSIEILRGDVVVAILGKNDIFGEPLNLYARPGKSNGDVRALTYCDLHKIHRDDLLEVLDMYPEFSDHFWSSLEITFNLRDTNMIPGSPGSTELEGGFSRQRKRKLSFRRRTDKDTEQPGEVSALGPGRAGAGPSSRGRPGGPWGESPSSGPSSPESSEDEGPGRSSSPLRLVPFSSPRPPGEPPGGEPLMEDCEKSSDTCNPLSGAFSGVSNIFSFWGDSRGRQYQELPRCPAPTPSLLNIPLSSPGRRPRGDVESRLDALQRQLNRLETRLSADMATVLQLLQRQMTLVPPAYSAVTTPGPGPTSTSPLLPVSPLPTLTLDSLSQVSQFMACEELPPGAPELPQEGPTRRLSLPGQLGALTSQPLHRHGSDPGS

[4] = Selectivity for human CCR2 over IKr
[5] = Oral bioavailability in rat at 3 mg/kg; type: ADME, organism-based; settings: in vivo
[6] = Clearance in rat at 3 mg/kg, po; type: ADME, organism-based; set-up: dose 3 mg/kg, route oral; settings: in vivo
[7] = Half life in rat at 3 mg/kg, po; type: ADME, organism-based; set-up: dose 3 mg/kg, route oral; settings: in vivo

Sequence of C-C chemokine receptor type 2 (P41597 whole entry): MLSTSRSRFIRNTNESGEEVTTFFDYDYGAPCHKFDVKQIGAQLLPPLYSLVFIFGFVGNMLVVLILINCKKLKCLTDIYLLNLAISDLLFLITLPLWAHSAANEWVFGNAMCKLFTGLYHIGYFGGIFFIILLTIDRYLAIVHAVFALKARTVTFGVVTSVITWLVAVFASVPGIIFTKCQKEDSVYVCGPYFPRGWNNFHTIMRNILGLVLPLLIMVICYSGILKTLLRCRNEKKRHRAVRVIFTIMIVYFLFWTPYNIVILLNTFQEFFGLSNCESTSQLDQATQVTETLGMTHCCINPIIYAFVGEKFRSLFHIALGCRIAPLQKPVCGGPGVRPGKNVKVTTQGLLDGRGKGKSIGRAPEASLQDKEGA

SMILES | IC50 [1] [nM] | IC50 [3] [nM] | IKr IC50/CCR2 IC50 ratio [4] | other results
CC(C)[C@]1(C(=O)NCc2cc(C(F)(F)F)cc(C(F)(F)F)c2)CC[C@@H](N2CCC(c3cncnc3)CC2)C1 [listing 1 of 2 here] | 5 |  |  | 
CC(C)(O)[C@]1(C(=O)NCc2cc(C(F)(F)F)cc(C(F)(F)F)c2)CC[C@@H](N2CCC(c3ccc(F)cc3)CC2)C1 | 1.3 | 54 | 42 | Activity [2]: 69%
CC(C)[C@]1(C(=O)NCc2cc(C(F)(F)F)cc(C(F)(F)F)c2)CC[C@@H](N2CCC(c3cccnn3)CC2)C1 (single isomer, unassigned) | 50 |  |  | 
CC(C)[C@]1(C(=O)NCc2cc(C(F)(F)F)cc(C(F)(F)F)c2)CC[C@@H](N2CCC(c3cncnc3)CC2)C1 [listing 2 of 2 here] |  |  |  | Activity [2]: 3%
CC(C)[C@]1(C(=O)NCc2cc(C(F)(F)F)cc(C(F)(F)F)c2)CC[C@@H](N2CCC(c3cccc(F)c3)CC2)C1 (single isomer, unassigned) | 4 |  |  | 
CC(C)[C@]1(C(=O)NCc2cc(C(F)(F)F)cc(C(F)(F)F)c2)CC[C@@H](N2CCC(c3cccc(C(=O)O)c3)CC2)C1 (single isomer, unassigned) | 41 | 600 | 15 | 
CC(C)[C@]1(C(=O)NCc2cc(C(F)(F)F)cc(C(F)(F)F)c2)CC[C@@H](N2CCC(c3cccnc3)CC2)C1 (relative stereo) | 6 |  |  | 
CC(C)[C@]1(C(=O)NCc2cc(C(F)(F)F)cc(C(F)(F)F)c2)CC[C@@H](N2CCC(c3cccc(O)c3)CC2)C1 (single isomer, unassigned) | 6 | 67 | 11 | 
CC(C)[C@]1(C(=O)NCc2cc(C(F)(F)F)cc(C(F)(F)F)c2)CC[C@@H](N2CCC(c3cccc(C(=O)O)c3)CC2)C1 | 62 | 2790 | 45 | 

Further lines, with some results ahead:

IC50 [1] [nM] | SMILES | IC50 [3] [nM] | IKr IC50/CCR2 IC50 ratio [4] | other results
6 | CC(C)(O)[C@]1(C(=O)NCc2cc(C(F)(F)F)cc(C(F)(F)F)c2)CC[C@@H](N2CCC(c3cncnc3)CC2)C1 |  |  | Activity [2]: 3%
64 | CC(C)[C@]1(C(=O)NCc2cc(C(F)(F)F)cc(C(F)(F)F)c2)CC[C@@H](N2CCC(c3ccnnc3)CC2)C1 (single isomer, unassigned) |  |  | 
144 | CC(C)[C@]1(C(=O)NCc2cc(C(F)(F)F)cc(C(F)(F)F)c2)CC[C@@H](N2CCC(c3ncccn3)CC2)C1 (single isomer, unassigned) |  |  | 
165 | CC(C)[C@]1(C(=O)NCc2cc(C(F)(F)F)cc(C(F)(F)F)c2)CC[C@@H](N2CCC(c3ccc(Cl)nn3)CC2)C1 (single isomer, unassigned) |  |  | 
3 | CC(C)[C@]1(C(=O)NCc2cc(C(F)(F)F)cc(C(F)(F)F)c2)CC[C@@H](N2CCC(c3ccc(F)cc3)CC2)C1 | 16 | 5 | Activity [2]: 69%
12 | CC(C)[C@]1(C(=O)NCc2cc(C(F)(F)F)cc(C(F)(F)F)c2)CC[C@@H](N2CCC(c3cncnc3)CC2)C1 (relative stereo) |  |  | bioavailability [5]: 33%; CL/F [6]: 7 mL/min/kg; half-life [7]: 3.8 h
6 | COc1cccc(C2CCN([C@@H]3CC[C@@](C(=O)NCc4cc(C(F)(F)F)cc(C(F)(F)F)c4)(C(C)C)C3)CC2)c1 (single isomer, unassigned) | 217 | 36 | 
44 | CC(C)[C@]1(C(=O)NCc2cc(C(F)(F)F)cc(C(F)(F)F)c2)CC[C@@H](N2CCC(c3ccncn3)CC2)C1 (single isomer, unassigned) | 130 | 3 | 
